In one data set the test system is AR. The data set can be described thus: qRT-PCR of AR and AR target gene expression in prostate cancer cells. The format is cell-based, human. The method, then:
(§1) NXTAR-N5 oligonucleotide was synthesized by IDT, and the oligonucleotide sequence is provided in TABLE 1 and FIG. 7C (* represents phosphorothioate bond modifications to avoid degradation by exonucleases). Equal numbers of VCaP and 22Rv1 cells were transfected with NXTAR-N5 or globin-derived oligonucleotide using X-tremeGENE360 (Sigma-Aldrich, Cat #08724121001), and the number of live cells was counted 96 h post-transfection using trypan blue exclusion method (Sigma, Cat #T8154). RNA was prepared from these cells, and qRT-PCR [SYBR PremixEx Taq II (Tli RNase H Plus)ROX, Clontech Takara, Cat #RR82LR] for AR and AR-V7 was performed as described earlier (see e.g., Mahajan et al. (2017) Cancer Cell).
(§2) Cells were transfected, infected or treated [(R)-9b; EPZ6438, TargetMol, Cat #T1788] accordingly. RNA was used for cDNA preparation using High-Capacity cDNA Reverse Transcription Kit (Thermo Scientific Cat #4368814). Resulting cDNA was then analyzed by qPCR using an Applied Biosystems 7900 Real-Time PCR System (Thermo Scientific) and SYBR Green PCR Master Mix [SYBR PremixEx Taq II (Tli RNase H Plus) ROX, Clontech Takara, Cat #RR82LR] according to the manufacturers' instructions. Dissociation curves were generated for each plate to verify the integrity of the primers. The relative expression of RNAs was calculated using the comparative Ct or standard curve method. 18S rRNA or actin were used as internal controls.

In another data set the test system is AR promoter. In words: ChIP-qPCR (EZH2, H3K27me3) at AR promoter. The format is cell-based, human. Particulars: VCaP cells transfected with oligo, ChIP. The procedure: (§3) Chromatin immunoprecipitation (ChIP), quantitative RT-PCR, and ChIP-qPCR were performed as described earlier (see e.g., Mahajan et al. (2017) Cancer Cell; Mahajan et al. (2012) J Biol Chem; and Mahajan et al. (2012) Nat Struct Mol Bio). Briefly, cells were either transfected, infected or treated with various inhibitors (R)-9b; CPTH2 (Sigma, Cat #C9873)], fixed in formaldehyde, lysed and ChIP was performed with antibodies recognizing AR (SCBT, sc-7305; RRID:AB_626671), GCN5 (SCBT, SC-365321; RRID:AB_10846182), H3K14ac (CST, 7627S; RRID:AB_10839410), H3K27me3 (CST, 9733S; RRID:AB 2616029), NCOR1 (Bethyl Laboratories, Cat #A301-145A; RRID:AB_873085), EZH2 (CST, 5246S; RRID:AB_10694683), or IgG (Abcam, ab2410; RRID:AB_303052), immobilized on Protein A magnetic beads (Biorad, Cat #161-4013). The complexes were washed with ChIP buffers, eluted with elution buffer (Active Motif, Cat #53008), and subjected to reverse crosslinking, followed by RNase and proteinase K treatments. A part of soluble chromatin was processed separately at the same time and designated as input DNA. Treated ChIP DNA and input DNAs were purified using PCR-DNA purification columns (Qiagen, Cat #28106). The amount of immunoprecipitated DNA was determined by real-time PCR.

For another data set, the system named is VCaP and 22Rv1 cells. In words: Proliferation assay, viable cells by trypan blue exclusion. The format is cell-based, human. The procedure: as §1
The 22Rv1, VCaP, or LNCaP cells were retrovirally infected with control or NXTAR vectors and selected in puromycin medium containing 5% charcoal-stripped serum. Equal numbers of selected cells were seeded in 6-well plates followed by treatment with either (R)-9b, enzalutamide (Selleck Chemicals, Cat #S1250), or abiraterone (Selleck Chemicals, Cat #52246), and the number of viable cells was counted by trypan blue exclusion assay.

Another data set concerns AR-V7. In words: qRT-PCR of AR-V7 expression in prostate cancer cells. The format is cell-based, human. The conditions noted are these: VCaP and 22Rv1 cells transfected with oligonucleotide. The procedure: as §1
as §2, with “18S rRNA or actin were used as internal controls.” left out

The next data set deals with upstream of AR. In words: ChIRP with biotin-labeled oligos and VCaP lysate, qPCR with AR Up1.1 primers. Format: binding, human. The conditions noted are these: biotinylated oligo on streptavidin beads, VCaP lysate, qPCR AR Up1.1. The procedure: (§4) Biotin-labeled NXTAR-N5 (complementary to the AR promoter) and globin oligos were synthesized (IDT) (see e.g., TABLE 1). ChIRP was performed using lysate from formaldehyde-fixed VCaP cells and oligos that were immobilized to streptavidin beads, as described earlier (see e.g., Chu and Chang (2016) Methods Mol Bio). The amount of the chromatin DNA was determined by real-time PCR. For detection of NXTAR-N5/EZH2 binding, biotin-labeled NXTAR-N5 oligo and control globin oligo were incubated with VCaP cell lysates and were subjected to chromatin pull-down, followed by immunoblotting with EZH2 antibodies.

A further data set concerns the target T1, EZH2 (Homo sapiens, UniProt Q15910).
T1 construct: endogenous in cells; host or cells: VCaP cells (some retrovirally infected to over-express NXTAR lncRNA)
The data set can be described thus: Pull-down from VCaP cell lysates with biotinylated oligos, immunoblotting for EZH2. Format: binding. Particulars: VCaP cell lysate, chromatin pull-down. The procedure:
The biotinylated oligonucleotides were incubated with lysates (2 h), and the lysates were incubated with streptavidin magnetic beads overnight. Beads attached to RNAs were divided equally and processed for either RNA isolation or western blotting. For RNA isolation, beads were washed three times and then separated using proteinase K treatment. RNA was then isolated and purified, and DNA was digested in the process. The real-time quantitative RT-PCR was performed on isolated RNA to check the efficiency of pull-down of NXTAR RNA. The remaining beads were heated at 80° C. for 5 min in loading buffer, followed by western blotting. The blots were probed with EZH2 (CST, 5246S; RRID:AB_10694683) antibody and Actin (SCBT, sc-47778; RRID:AB_2714189) was used as the loading control.
as §4

For another data set, the target named is T2, purified EZH2 (Homo sapiens, UniProt Q15910).
T2 construct: made in house
T2 sequence (Q15910 whole entry): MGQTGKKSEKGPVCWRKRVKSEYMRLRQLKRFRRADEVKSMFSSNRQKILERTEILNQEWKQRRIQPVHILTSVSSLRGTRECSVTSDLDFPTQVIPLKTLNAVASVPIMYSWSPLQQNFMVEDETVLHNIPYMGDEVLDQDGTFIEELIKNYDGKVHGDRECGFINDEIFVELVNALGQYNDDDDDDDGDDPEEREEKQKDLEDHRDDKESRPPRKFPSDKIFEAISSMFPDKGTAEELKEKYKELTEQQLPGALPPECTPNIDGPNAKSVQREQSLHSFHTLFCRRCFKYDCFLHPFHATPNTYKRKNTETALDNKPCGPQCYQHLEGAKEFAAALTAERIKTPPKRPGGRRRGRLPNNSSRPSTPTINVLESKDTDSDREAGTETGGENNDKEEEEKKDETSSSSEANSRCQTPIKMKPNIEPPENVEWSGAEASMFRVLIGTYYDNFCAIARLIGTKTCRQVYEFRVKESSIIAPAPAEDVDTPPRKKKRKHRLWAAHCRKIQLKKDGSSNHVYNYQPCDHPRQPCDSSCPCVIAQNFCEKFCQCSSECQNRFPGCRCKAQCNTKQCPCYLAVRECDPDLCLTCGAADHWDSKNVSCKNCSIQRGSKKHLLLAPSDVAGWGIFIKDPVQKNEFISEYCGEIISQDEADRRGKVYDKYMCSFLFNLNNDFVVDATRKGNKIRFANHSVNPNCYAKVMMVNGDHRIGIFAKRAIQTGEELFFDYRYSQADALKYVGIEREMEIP
In words: EZH2 pull-down assay with purified 6xHis-tagged EZH2. The format is binding. The conditions noted are these: pull-down, immunoblotting. The procedure:
1 mg of lysate prepared from HEK293 cells transfected with 6λHis-tagged-EZH2 plasmid was incubated with Ni-NTA agarose beads (Qiagene) overnight at 4° C. Beads were washed three times using wash buffer (20 mM Tris/HCl, 200 mM NaCl, 5 mM imidazole; pH 7.5) and purified EZH2 was eluted using elution buffer (20 mM Tris/HCl, 200 mM NaCl, 200 mM imidazole; pH 7.5).
LncRNA-Protein binding study was performed as described earlier (see e.g., Zhao, Wang, and Hu (2021) Methods Mol Bio). Briefly, 10 pmol Biotinylated NXTAR-N5 oligo or Biotinylated Globin oligos were diluted in 40 ul RNA structure buffer, heated at 90° C. for 2 min, immediately transferred onto ice for 2 min and then kept at RT for further 20 mins. 10 uM of purified EZH2 protein was added to these biotinylated oligos with 500 ul of NETN buffer and the tubes were placed at 4° C. for 2 hrs. Post washing with cold NETN buffer, streptavidin magnetic beads (60 ul) were added into prepared oligo-protein mix and incubated at 4° C. overnight. Beads were washed 3 times with NETN buffer, followed by western blot analysis. […]

A further data set has as its system NXTAR. The data set can be described thus: qRT-PCR of NXTAR expression in prostate cancer cell lines. The format is cell-based, human. The procedure:
as §2

In another data set the test system is NXTAR promoter. In words: ChIP-qPCR at NXTAR promoter (Ppr3, Ppr4), IRF8 binding site and NXTAR enhancer. The format is cell-based, human. The conditions noted are these: 22Rv1 and LNCaP cells, (R)-9b combined with CPTH2. The procedure:
as §3

Setting [1] is: Enzalutamide-resistant VCaP cells, 7 μM enzalutamide, 96 h.

Oligonucleotides are written 5' to 3', each unit as a sugar letter and its base; * is a phosphorothioate linkage, no mark a phosphodiester; rarer units and linkages stand in square brackets, end groups in braces. Plain capitals give the bases only. d = 2'-deoxy (DNA)

T1 sequence (Q15910 whole entry): as above
T1 sequence (O75530 whole entry partner): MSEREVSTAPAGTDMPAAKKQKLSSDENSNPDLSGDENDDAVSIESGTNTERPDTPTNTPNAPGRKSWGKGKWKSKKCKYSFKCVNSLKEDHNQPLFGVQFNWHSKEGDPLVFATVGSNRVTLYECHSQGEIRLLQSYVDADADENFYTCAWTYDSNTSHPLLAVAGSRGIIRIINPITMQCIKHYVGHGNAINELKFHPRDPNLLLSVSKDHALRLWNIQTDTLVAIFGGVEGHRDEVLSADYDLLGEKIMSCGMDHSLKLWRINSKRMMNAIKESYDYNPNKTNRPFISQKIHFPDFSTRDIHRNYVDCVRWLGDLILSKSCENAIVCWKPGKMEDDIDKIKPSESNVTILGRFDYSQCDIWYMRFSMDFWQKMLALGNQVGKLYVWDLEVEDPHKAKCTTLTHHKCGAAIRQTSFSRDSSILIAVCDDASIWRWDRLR
T1 sequence (Q15022 whole entry partner): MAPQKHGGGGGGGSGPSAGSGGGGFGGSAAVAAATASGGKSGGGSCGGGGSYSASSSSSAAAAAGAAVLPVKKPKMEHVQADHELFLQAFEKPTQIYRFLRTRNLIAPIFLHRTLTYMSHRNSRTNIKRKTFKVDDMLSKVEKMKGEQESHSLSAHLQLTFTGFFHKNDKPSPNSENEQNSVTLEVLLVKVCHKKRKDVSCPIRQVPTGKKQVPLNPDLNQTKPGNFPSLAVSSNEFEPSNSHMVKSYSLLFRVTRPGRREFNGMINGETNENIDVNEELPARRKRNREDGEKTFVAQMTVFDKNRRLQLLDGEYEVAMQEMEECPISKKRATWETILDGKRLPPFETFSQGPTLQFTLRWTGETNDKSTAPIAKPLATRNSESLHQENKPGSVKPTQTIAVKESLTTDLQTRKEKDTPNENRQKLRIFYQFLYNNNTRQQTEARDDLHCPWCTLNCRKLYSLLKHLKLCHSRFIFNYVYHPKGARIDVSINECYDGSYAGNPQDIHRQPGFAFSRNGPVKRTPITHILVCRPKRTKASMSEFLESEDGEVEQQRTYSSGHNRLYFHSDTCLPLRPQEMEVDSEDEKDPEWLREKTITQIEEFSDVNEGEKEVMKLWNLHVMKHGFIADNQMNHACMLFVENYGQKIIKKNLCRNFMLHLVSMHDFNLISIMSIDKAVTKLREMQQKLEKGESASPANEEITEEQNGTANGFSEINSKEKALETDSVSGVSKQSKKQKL
T1 sequence (Q09028 whole entry partner): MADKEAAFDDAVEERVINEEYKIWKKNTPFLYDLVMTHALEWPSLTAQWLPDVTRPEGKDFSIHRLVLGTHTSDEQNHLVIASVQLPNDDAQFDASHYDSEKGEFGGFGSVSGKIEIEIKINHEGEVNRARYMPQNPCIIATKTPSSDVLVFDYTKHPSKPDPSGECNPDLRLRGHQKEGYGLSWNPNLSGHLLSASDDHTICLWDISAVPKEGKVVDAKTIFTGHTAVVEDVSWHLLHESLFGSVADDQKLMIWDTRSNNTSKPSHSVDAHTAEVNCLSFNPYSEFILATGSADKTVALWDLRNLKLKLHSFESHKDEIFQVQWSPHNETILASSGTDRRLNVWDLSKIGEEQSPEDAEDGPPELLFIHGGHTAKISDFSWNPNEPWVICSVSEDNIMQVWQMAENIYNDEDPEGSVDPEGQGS

In the case of “NXTAR-N5: 60-mer oligonucleotide, nt 511-570 of SEQ ID NO: 58, terminal phosphorothioate bonds (SEQ ID NO: 1) (DNA dA*dT*dT*dAdTdTdAdTdTdTdTdAdAdAdTdTdTdAdCdAdGdAdAdGdGdGdGdAdAdAdCdTdAdAdGdAdAdTdTdAdTdAdGdAdCdAdTdGdAdAdGdTdGdAdCdTdC*dA*dC*dC)”, the AR transcription result in the data set on AR (VCaP and 22Rv1 cells transfected with oligonucleotide) is “significant decrease”. For the same compound, in the data set with AR (transfection of oligos, prostate and other cancer cell lines), the AR expression entry is “highly effective”. The “histone H3K27 methylation in the AR promoter region (−0.7 kb)” value with AR promoter is “induced histone H3K27 methylation”. Moreover, the “proliferation (live cells)” value with VCaP and 22Rv1 cells (VCaP and 22Rv1 cells, 96 h post-transfection) is recorded as “compromised proliferation”. The AR-V7 transcription entry in the data set with AR-V7 is “significant decrease”. The “binding upstream of AR” value with upstream of AR was “bound upstream of AR”. Further, the “interaction with EZH2” value with EZH2 is “interaction with EZH2 was confirmed”. Moreover, in the data set with purified EZH2, the “interaction with purified EZH2” value is recorded as “interaction with purified EZH2 (as described above) was confirmed”.

On to `CCN(c1cc(-c2ccc(CN3CCOCC3)cc2)cc(C(=O)NCc2c(C)cc(C)[nH]c2=O)c1C)C1CCOCC1` [EPZ6438, reference compound], for which the AR expression result in the data set with AR (VCaP cells infected with NXTAR construct, EPZ6438 1 μM overnight) is listed as “restored the AR expression”.

On to `CNC(=O)c1ccc(N2C(=S)N(c3ccc(C#N)c(C(F)(F)F)c3)C(=O)C2(C)C)cc1F` [enzalutamide, reference compound], for which the AR levels result with AR (setting [1]) was “marginal decrease in AR levels”. For the same compound, in the data set on VCaP and 22Rv1 cells (VCaP (9 days) and 22Rv1 (5 days) cells, androgen-deprived, drug treatment), the “proliferation (number of viable cells)” value is “did not result in a significant decrease in proliferation”. For the same compound, in the data set on NXTAR (setting [1]), the NXTAR levels result is “no change in NXTAR levels”.

Take `Clc1ccc(-c2csc(NN=C3CCCC3)n2)cc1` [CPTH2]: in the data set on NXTAR promoter, the “H3K14ac mark deposition at Ppr3 and Ppr4” value was “abrogated”. The “NXTAR levels following (R)-9b treatment under GCN5 inhibition” value in the data set on NXTAR (22Rv1 and LNCaP cells, CPTH2 in combination with (R)-9b) is “severely compromised”.

These data come from US12194057B2, “NXTAR-derived oligonucleotides and uses thereof” (Washington University, priority 2020, dated 2025).
